Measured values published in patent US20030032640A1, “Novel composition” (priority 2000, published 2003).
Structures can show the parent of a compound that is named as a salt. Values belong to the compound of their own block, whether it stands above or below them.

Tests used:
[1] = biological target: 5HT4 receptor (Homo sapiens, UniProt Q13639); settings: from the cited literature; cited from earlier work
[2] = Cohesiveness and flowability of drug substance and granules; assay type: physicochemical; settings: HCl salt crystallised from ethanol/IMS with C5-C10 hydrocarbon
Description: The second aspect of the newly recognised problem, is the discovery that the SB 207266 HCl salt produced by these processes is very cohesive and has poor flowability/flow characteristics.

[3] = Particle size (DV 90/50/10) of batches of SB-207266-A made by the Description 1 process; assay type: physicochemical; settings: for DV 10 / DV 50 / DV 90: individual batch, hydrochloride; for DV 10: 10% by volume of the material is less than this size; for DV 50: 50% by volume of the material is less than this size; for DV 90: 90% by volume of the material is less than this size
Description: The first aspect of the newly recognised problem is that such processes produce the SB 207266 hydrochloride salt in the form of particles of extremely small particle size.
DV 90, DV 50 and DV 10 respectively mean that 90%, 50% and 10% by volume of the material is less than the micron size specified.

[4] = Bulk density of the small-particle size HCl salt; assay type: physicochemical; settings: densifies on addition of water
Description: The fourth aspect of the newly recognised problem is that the small-particle size SB-207266 HCl salt has a low bulk density, densifying on the addition of water. This means that less material can be added to a mixer of fixed volume, leading to a less efficient manufacturing process as large volumes of equipment have to be used for relatively small volumes of drug (smaller throughput in plant).

Chain of 5HT4 receptor (Q13639 whole entry): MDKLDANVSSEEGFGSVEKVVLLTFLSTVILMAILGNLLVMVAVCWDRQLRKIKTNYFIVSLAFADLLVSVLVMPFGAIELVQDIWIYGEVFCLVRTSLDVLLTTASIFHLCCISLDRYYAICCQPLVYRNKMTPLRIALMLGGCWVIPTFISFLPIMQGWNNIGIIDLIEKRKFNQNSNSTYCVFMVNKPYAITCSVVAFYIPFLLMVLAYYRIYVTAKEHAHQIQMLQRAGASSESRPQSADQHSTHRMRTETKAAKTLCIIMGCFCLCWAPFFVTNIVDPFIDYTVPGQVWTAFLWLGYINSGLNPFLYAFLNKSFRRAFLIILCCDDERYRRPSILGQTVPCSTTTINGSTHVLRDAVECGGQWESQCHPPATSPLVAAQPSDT

SMILES: CCCCN1CCC(CNC(=O)c2c3n(c4ccccc24)CCCO3)CC1 [SB 207266, N-[(1-^nbutyl-4-piperidinyl)methyl]-3,4-dihydro-2H-[1,3]oxazino[3,2-a]indole-10-carboxamide]
selectivity for the 5HT4 receptor over other 5HT receptors [1]: highly selective

cohesiveness [2]: very cohesive
flowability/flow characteristics [2]: poor
DV 10, average of batches ([3]; average of the five batches): 1.5 μm
DV 50, average of batches ([3]; average of the five batches): 5.8 μm
DV 90, average of batches ([3]; average of the five batches): 14.4 μm
DV 10 ([3]; listed as BDC-G-02C): 1.5 μm
DV 10 ([3]; listed as BDC-G-03C): 1.8 μm
DV 10 ([3]; listed as BDC-G-04C): 1.4 μm
DV 10 ([3]; listed as BDC-G-05C): 1.5 μm
DV 10 ([3]; listed as BDC-H-01C): 1.4 μm
DV 50 ([3]; listed as BDC-G-02C): 5.7 μm
DV 50 ([3]; listed as BDC-G-03C): 6.8 μm
DV 50 ([3]; listed as BDC-G-04C): 5.3 μm
DV 50 ([3]; listed as BDC-G-05C): 5.8 μm
DV 50 ([3]; listed as BDC-H-01C): 5.3 μm
DV 90 ([3]; listed as BDC-G-02C): 13.8 μm
DV 90 ([3]; listed as BDC-G-03C): 16.4 μm
DV 90 ([3]; listed as BDC-G-04C): 14.4 μm
DV 90 ([3]; listed as BDC-G-05C): 14.6 μm
DV 90 ([3]; listed as BDC-H-01C): 12.8 μm
bulk density [4]: low
SMILES: CCCCN1CCC(CNC(=O)c2c3n(c4ccccc24)CCCO3)CC1 [SB-207266-A, N-[(1-butyl-4-piperidinyl)methyl]-3,4-dihydro-2H-[1,3]-oxazino[3,2-α]indole-10-carboxamide hydrochloride]
